Active and inactive are the calls of the source.
Tests used:
Estrogen receptor = target: T1, Estrogen receptor (Homo sapiens, UniProt P03372); assay: potentiators of ERα–SRC-1 coactivator binding, dose response, biochemical, TR-FRET, ERα LBD (AID 737)
T1 sequence (P03372 whole entry): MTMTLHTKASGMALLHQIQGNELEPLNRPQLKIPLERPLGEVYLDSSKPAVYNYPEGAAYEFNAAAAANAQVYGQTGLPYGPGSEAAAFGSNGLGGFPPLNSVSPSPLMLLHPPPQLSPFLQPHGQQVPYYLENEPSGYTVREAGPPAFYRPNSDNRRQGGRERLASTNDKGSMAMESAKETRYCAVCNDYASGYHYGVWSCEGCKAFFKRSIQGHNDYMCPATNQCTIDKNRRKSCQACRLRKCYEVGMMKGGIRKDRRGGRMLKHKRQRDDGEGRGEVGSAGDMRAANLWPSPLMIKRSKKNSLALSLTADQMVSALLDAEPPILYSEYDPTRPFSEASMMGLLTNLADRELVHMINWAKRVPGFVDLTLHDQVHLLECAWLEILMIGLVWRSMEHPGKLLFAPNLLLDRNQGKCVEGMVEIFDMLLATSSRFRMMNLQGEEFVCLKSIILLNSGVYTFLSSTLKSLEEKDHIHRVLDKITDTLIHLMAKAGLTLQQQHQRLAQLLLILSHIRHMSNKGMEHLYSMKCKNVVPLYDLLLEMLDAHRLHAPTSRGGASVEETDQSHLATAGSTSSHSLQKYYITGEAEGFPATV

NADPH oxidase 1 = NADPH oxidase 1 (Homo sapiens, UniProt Q9Y5S8); assay: Luminescence-based cell-based dose response assay to identify inhibitors of NADPH oxidase 1 (NOX1).; assay type: functional
NADPH oxidase 1, sequence (Q9Y5S8 whole entry): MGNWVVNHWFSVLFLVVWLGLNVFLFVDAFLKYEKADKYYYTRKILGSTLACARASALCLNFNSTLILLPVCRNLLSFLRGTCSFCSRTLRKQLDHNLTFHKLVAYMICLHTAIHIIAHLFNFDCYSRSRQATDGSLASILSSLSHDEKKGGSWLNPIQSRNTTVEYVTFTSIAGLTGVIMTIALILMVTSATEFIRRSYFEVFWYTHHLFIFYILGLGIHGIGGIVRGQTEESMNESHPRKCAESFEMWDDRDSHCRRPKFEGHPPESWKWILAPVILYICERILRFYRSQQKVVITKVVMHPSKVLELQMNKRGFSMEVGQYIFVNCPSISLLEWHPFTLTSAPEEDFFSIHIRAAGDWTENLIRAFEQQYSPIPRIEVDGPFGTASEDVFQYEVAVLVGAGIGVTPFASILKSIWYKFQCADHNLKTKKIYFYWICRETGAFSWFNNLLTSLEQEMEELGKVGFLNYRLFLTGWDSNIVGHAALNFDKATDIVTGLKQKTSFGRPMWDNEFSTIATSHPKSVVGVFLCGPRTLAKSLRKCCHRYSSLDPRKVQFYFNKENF

[1] = inhibitors of Vif binding to APOBEC3G peptide, primary screen, biochemical, TR-FRET, GST-Vif 1-94, biotin-A3G peptide, dose response retest (AID 1117319); assay type: functional;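 note: TR-FRET signal of purified GST-Vif binding a biotinylated A3G peptide; inhibitors lower the FRET signal by blocking Vif and A3G binding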
[2] = target: T2, Neuropeptide Y receptor type 2 (Homo sapiens, UniProt P49146); assay: NPY-Y2 antagonist potency, selectivity check, dose response, counter-screen for NPY-Y1 antagonist project, cell-based (AID 1278); assay type: functional
T2 sequence (P49146 whole entry): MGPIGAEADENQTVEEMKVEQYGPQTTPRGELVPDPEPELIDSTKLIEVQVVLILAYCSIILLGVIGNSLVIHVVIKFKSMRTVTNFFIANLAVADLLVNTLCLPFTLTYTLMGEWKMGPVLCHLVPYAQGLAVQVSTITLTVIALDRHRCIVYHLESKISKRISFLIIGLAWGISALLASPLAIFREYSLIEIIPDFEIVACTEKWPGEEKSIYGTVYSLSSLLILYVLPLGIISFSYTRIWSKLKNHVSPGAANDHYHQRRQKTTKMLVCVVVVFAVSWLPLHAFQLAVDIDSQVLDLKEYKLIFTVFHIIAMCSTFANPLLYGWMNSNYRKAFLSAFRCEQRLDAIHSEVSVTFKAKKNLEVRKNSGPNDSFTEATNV

[3] = target: T3, Neuropeptide Y receptor type 1 (Homo sapiens, UniProt P25929); assay: NPY-Y1 receptor antagonist potency, dose response, cell-based (AID 1277); assay type: functional
T3 sequence (P25929 whole entry): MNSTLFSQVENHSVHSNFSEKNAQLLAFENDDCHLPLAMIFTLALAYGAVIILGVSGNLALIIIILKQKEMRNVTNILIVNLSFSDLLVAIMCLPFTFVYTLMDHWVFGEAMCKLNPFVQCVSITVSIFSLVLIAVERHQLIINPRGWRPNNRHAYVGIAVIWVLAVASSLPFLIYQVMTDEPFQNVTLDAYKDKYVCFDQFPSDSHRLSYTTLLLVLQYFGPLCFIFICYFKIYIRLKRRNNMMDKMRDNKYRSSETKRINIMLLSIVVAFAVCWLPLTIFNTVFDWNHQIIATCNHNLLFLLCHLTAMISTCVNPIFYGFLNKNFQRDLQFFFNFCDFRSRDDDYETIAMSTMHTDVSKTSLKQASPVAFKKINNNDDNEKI

[4] = target: Luciferin 4-monooxygenase (Photinus pyralis, UniProt P08659); assay: Counter Screen for Luciferase-based Assay Positives. [Related pubchem assays: 620, 618, 411 ]
Luciferin 4-monooxygenase, sequence (P08659 whole entry): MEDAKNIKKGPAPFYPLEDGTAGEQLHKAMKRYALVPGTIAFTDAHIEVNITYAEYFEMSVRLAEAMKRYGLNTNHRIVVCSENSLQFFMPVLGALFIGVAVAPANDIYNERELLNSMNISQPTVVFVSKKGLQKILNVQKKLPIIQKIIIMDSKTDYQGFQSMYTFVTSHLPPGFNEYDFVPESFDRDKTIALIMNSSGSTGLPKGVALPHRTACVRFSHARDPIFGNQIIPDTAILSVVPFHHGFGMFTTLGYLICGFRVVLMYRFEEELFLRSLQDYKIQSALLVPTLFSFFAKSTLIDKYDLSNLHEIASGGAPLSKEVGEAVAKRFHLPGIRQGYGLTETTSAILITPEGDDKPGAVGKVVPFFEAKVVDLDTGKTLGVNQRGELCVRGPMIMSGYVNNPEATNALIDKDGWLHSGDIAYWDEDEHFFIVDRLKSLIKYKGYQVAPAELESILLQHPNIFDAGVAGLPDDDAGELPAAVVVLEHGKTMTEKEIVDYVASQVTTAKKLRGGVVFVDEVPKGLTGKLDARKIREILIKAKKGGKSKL

HT-1080 = assay: cytotoxicity in HT1080 fibrosarcoma cells, cell-based, fluorescence readout (AID 620); assay type: functional; settings: Homo sapiens
Large T antigen = Large T antigen (Simian virus 40, UniProt P03070); assay type: functional, Betapolyomavirus macacae;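 note: Confirmatory-stage PubChem screen for compounds that inhibit SV40 T antigen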
Large T antigen, sequence (P03070 whole entry): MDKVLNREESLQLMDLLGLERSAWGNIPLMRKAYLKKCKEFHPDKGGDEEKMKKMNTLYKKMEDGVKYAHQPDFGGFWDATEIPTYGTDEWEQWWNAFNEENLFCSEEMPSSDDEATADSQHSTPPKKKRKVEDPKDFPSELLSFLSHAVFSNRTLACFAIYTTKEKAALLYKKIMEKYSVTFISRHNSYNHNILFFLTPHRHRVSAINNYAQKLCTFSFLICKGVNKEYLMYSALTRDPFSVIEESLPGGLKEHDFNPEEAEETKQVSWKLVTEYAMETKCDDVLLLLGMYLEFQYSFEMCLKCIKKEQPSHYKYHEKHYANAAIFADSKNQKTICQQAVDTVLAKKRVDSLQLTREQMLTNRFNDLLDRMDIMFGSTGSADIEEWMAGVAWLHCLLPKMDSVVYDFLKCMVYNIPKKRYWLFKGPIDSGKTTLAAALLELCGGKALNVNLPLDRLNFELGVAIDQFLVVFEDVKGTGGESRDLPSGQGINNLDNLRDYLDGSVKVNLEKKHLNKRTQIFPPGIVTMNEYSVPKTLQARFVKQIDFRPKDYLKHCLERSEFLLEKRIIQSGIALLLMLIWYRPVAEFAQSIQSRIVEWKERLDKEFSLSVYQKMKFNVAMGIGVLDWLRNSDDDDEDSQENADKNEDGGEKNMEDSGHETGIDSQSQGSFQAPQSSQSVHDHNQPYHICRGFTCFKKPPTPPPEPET

[5] = target: Induced myeloid leukemia cell differentiation protein Mcl-1 (Homo sapiens, UniProt Q07820); assay: MCL1-BIM BH3 interaction inhibitors, dose response, biochemical, fluorescence polarization, BIM-BH3 peptide, 1536-well (AID 2217)
Induced myeloid leukemia cell differentiation protein Mcl-1, sequence (Q07820 whole entry): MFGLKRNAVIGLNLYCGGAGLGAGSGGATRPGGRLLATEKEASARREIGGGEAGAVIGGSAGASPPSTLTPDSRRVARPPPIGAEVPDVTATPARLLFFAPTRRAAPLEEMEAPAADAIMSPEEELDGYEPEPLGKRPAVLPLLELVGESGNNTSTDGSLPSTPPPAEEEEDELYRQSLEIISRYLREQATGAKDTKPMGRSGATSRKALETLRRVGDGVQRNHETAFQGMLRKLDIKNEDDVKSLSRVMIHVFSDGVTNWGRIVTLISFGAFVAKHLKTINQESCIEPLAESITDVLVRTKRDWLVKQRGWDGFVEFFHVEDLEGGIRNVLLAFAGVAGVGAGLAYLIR

Bcl-2-like protein 1 = Bcl-2-like protein 1 (Homo sapiens, UniProt Q07817); assay: BCL-XL inhibitors, dose response, selectivity assay for MCL1 inhibitor project, biochemical, fluorescence polarization, 1536-well (AID 2218)
Bcl-2-like protein 1, sequence (Q07817 whole entry): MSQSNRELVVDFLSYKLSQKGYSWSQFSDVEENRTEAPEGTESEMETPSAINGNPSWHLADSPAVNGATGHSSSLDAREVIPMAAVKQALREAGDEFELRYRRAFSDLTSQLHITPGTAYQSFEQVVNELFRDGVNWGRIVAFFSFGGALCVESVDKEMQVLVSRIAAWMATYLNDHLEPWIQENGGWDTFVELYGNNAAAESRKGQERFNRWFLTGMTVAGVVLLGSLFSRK

[6] = target: Alkaline phosphatase, placental type (Homo sapiens, UniProt P05187); assay: PLAP enzyme inhibitors, confirmation, biochemical, luminescence (AID 1512); assay type: functional
Alkaline phosphatase, placental type, sequence (P05187 whole entry): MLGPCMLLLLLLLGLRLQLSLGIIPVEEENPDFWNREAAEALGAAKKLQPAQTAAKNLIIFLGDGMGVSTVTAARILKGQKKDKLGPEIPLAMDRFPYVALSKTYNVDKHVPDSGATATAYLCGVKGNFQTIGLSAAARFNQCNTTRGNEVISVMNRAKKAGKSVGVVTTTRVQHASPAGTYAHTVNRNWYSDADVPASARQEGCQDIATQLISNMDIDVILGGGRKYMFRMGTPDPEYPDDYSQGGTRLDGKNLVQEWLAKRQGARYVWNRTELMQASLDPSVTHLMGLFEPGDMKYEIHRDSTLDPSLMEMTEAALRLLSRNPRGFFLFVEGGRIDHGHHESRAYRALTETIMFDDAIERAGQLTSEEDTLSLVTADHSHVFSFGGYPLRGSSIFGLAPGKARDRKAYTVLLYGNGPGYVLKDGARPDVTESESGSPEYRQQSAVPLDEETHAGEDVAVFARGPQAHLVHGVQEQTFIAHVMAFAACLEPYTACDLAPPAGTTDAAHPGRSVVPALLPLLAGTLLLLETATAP

[7] = target: T4, Alkaline phosphatase, tissue-nonspecific isozyme (Homo sapiens, UniProt P05186); assay: human TNAP enzyme inhibitors, SAR follow-up, biochemical, luminescent, dose response (AID 1056)
T4 sequence (P05186 whole entry): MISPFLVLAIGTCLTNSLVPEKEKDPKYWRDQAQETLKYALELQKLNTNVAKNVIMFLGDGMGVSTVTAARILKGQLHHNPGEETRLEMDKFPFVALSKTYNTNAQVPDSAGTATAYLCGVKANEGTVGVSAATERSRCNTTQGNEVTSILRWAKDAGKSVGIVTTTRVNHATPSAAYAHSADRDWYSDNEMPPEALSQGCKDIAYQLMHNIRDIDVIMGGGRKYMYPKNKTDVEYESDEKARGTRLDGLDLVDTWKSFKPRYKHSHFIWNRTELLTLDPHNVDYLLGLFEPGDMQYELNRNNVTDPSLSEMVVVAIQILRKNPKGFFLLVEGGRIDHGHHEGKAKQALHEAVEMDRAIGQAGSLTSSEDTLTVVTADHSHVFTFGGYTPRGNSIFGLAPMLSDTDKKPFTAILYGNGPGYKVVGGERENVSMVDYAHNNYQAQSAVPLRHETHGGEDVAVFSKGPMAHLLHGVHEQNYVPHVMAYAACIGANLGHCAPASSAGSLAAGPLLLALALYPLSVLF

[8] = target: T5, Histone-lysine N-methyltransferase NSD2 (Homo sapiens, UniProt O96028); assay type: biochemical
T5 sequence (O96028 whole entry): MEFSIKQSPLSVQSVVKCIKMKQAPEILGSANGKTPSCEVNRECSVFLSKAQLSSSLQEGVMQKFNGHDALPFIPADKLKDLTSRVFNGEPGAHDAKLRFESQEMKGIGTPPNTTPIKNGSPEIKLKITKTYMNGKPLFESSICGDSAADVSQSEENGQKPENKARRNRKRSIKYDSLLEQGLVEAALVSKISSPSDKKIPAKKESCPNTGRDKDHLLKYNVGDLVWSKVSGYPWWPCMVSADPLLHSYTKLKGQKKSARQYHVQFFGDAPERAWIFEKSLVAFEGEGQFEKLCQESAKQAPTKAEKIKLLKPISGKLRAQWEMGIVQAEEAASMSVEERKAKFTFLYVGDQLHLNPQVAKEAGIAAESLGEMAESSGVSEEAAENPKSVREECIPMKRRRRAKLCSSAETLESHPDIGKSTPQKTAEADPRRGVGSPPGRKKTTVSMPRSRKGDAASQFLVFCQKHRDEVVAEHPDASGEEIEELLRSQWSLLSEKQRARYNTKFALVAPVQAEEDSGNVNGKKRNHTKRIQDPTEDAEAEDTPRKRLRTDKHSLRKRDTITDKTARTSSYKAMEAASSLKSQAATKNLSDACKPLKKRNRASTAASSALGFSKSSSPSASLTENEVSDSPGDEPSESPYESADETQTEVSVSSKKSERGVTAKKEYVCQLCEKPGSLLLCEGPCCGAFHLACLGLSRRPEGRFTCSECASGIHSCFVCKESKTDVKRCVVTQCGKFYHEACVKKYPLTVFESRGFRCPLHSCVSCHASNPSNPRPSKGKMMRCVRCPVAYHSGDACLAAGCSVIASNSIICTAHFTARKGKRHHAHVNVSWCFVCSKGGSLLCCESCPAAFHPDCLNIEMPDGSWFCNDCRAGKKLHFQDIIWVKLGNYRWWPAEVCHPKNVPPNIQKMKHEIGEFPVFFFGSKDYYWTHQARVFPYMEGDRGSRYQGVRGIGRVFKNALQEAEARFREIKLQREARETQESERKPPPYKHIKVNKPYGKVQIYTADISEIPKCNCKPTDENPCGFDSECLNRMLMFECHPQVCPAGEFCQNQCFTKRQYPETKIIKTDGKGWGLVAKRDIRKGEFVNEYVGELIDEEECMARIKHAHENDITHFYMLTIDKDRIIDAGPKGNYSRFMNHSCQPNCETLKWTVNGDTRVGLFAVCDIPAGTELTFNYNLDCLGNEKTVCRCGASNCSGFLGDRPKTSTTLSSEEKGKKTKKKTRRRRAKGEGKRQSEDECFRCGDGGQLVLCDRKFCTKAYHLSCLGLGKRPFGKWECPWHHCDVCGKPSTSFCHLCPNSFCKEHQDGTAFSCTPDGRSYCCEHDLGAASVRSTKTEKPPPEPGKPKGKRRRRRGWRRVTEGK

## Cc1ccc(F)cc1NC(=O)c1cccc2nccnc12
Estrogen receptor
  EC50: 13 µM (not active)

## CN(C)c1ccc(NC(=O)Nc2cccc(Cl)c2)cc1
NADPH oxidase 1
  IC50: 0.048 µM (active)
[1]
  IC50: > 51.6 µM (active)

## COC(=O)[C@@]1(Cc2ccc(F)cc2)[C@H]2c3cc(C(=O)N4CCCC4)n(Cc4ccc(C(F)(F)F)nc4)c3C[C@H]2CN1C(=O)c1ccccc1
[2]
  IC50: > 35 µM (not active)
[3]
  IC50: > 35 µM (not active)

## Cc1nn2cc(-c3ccccc3)nc2s1
[4]
  EC50: 0.7 µM (active)
HT-1080
  EC50: > 50 µM (not active)

## C=CCn1c(SCC(=O)c2ccc(O)c(O)c2)nnc1-c1cccnc1
Large T antigen
  IC50: 14.5 µM (active)
[5]
  IC50: 9.37 µM (active)
Bcl-2-like protein 1
  IC50: > 109 µM (not active)
[6]
  IC50: 2.92 µM (active)
[7]
  IC50: 22.2 µM (active)
[8]
  AC50: 4.18 µM (active)
